Measurements taken from PubChem BioAssay AID1745844 (Carcinogenic Potency Database (CPDB), 2022).
Several values for one entry are separate records, joined by “and”; a condition that tells them apart may be missing. Equal values may be shown once.

System: rodent lifetime carcinogenesis bioassay, tumor incidence TD50
Test: carcinogenic potency in animals, long-term in vivo studies, CPDB compilation (AID 1745844)
Details: inhaled

Compound FC(F)=C(F)F has a TD50 (mouse, strain B6C3F1, females, site: Harderian gland, lesion: adenoma, dosed 95 weeks, study length 95 weeks) of 1470 mg/kg/day, a TD50 (mouse, strain B6C3F1, females, site: all sites + liver, lesion: histiocytic sarcoma + hemangioma + hemangiosarcoma + hepatocellular adenoma + hepatocellular carcinoma, dosed 95 weeks, study length 95 weeks) of 54 mg/kg/day and a TD50 (mouse, strain B6C3F1, females, site: all sites, lesion: hemangioma + hemangiosarcoma, dosed 95 weeks, study length 95 weeks) of 61.3 mg/kg/day. For the same compound, the TD50 (mouse, strain B6C3F1, females, site: all sites, lesion: hemangioma, dosed 95 weeks, study length 95 weeks) was 835 mg/kg/day, the TD50 (mouse, strain B6C3F1, females, site: all sites, lesion: hemangiosarcoma, dosed 95 weeks, study length 95 weeks) was 66.5 mg/kg/day and the TD50 (mouse, strain B6C3F1, females, site: all sites, lesion: histiocytic sarcoma, dosed 95 weeks, study length 95 weeks) was 176 mg/kg/day. The TD50 (mouse, strain B6C3F1, females, site: any site (literature study), lesion: several types, types named in the paper, dosed 95 weeks, study length 95 weeks) was 48.4 mg/kg/day, the TD50 (mouse, strain B6C3F1, females, site: liver, lesion: hemangioma + hemangiosarcoma, dosed 95 weeks, study length 95 weeks) was 61.3 mg/kg/day and the TD50 (mouse, strain B6C3F1, females, site: liver, lesion: hemangioma, dosed 95 weeks, study length 95 weeks) was 530 mg/kg/day. It also gave a TD50 (mouse, strain B6C3F1, females, site: liver, lesion: hemangiosarcoma, dosed 95 weeks, study length 95 weeks) of 66.5 mg/kg/day, a TD50 (mouse, strain B6C3F1, females, site: liver, lesion: hepatocellular adenoma + hepatoblastoma + hepatocellular carcinoma, dosed 95 weeks, study length 95 weeks) of 63.3 mg/kg/day and a TD50 (mouse, strain B6C3F1, females, site: liver, lesion: hepatocellular adenoma + hepatocellular carcinoma, dosed 95 weeks, study length 95 weeks) of 63.3 mg/kg/day. The TD50 (mouse, strain B6C3F1, females, site: liver, lesion: hepatocellular adenoma, dosed 95 weeks, study length 95 weeks) was 217 mg/kg/day, the TD50 (mouse, strain B6C3F1, females, site: liver, lesion: hepatocellular carcinoma, dosed 95 weeks, study length 95 weeks) was 80.8 mg/kg/day and the TD50 (mouse, strain B6C3F1, females, site: lung, lesion: alveolar/bronchiolar adenoma + alveolar/bronchiolar carcinoma + carcinoma, dosed 95 weeks, study length 95 weeks) was 1640 mg/kg/day. The TD50 (mouse, strain B6C3F1, females, site: lung, lesion: alveolar/bronchiolar adenoma + alveolar/bronchiolar carcinoma, dosed 95 weeks, study length 95 weeks) was 1010 mg/kg/day, the TD50 (mouse, strain B6C3F1, females, site: pituitary gland, lesion: pars distalis adenoma, dosed 95 weeks, study length 95 weeks) was 1450 mg/kg/day and the TD50 (mouse, strain B6C3F1, males, site: Harderian gland, lesion: adenoma + carcinoma, dosed 95 weeks, study length 95 weeks) was 1270 mg/kg/day. For the same compound, the TD50 (mouse, strain B6C3F1, males, site: Harderian gland, lesion: adenoma, dosed 95 weeks, study length 95 weeks) was 1390 mg/kg/day, the TD50 (mouse, strain B6C3F1, males, site: all sites + liver, lesion: histiocytic sarcoma + hemangioma + hemangiosarcoma + hepatocellular adenoma + hepatocellular carcinoma, dosed 95 weeks, study length 95 weeks) was 71.6 mg/kg/day and the TD50 (mouse, strain B6C3F1, males, site: all sites, lesion: hemangioma + hemangiosarcoma, dosed 95 weeks, study length 95 weeks) was 88.3 mg/kg/day. The TD50 (mouse, strain B6C3F1, males, site: all sites, lesion: hemangioma, dosed 95 weeks, study length 95 weeks) was 297 mg/kg/day, the TD50 (mouse, strain B6C3F1, males, site: all sites, lesion: hemangiosarcoma, dosed 95 weeks, study length 95 weeks) was 109 mg/kg/day and the TD50 (mouse, strain B6C3F1, males, site: all sites, lesion: histiocytic sarcoma, dosed 95 weeks, study length 95 weeks) was 429 mg/kg/day. The TD50 (mouse, strain B6C3F1, males, site: any site (literature study), lesion: several types, types named in the paper, dosed 95 weeks, study length 95 weeks) was 69.9 mg/kg/day, the TD50 (mouse, strain B6C3F1, males, site: liver, lesion: hemangioma + hemangiosarcoma, dosed 95 weeks, study length 95 weeks) was 87 mg/kg/day and the TD50 (mouse, strain B6C3F1, males, site: liver, lesion: hemangioma, dosed 95 weeks, study length 95 weeks) was 308 mg/kg/day. The TD50 (mouse, strain B6C3F1, males, site: liver, lesion: hemangiosarcoma, dosed 95 weeks, study length 95 weeks) was 108 mg/kg/day, the TD50 (mouse, strain B6C3F1, males, site: liver, lesion: hepatocellular adenoma + hepatoblastoma + hepatocellular carcinoma, dosed 95 weeks, study length 95 weeks) was 91 mg/kg/day and the TD50 (mouse, strain B6C3F1, males, site: liver, lesion: hepatocellular adenoma + hepatocellular carcinoma, dosed 95 weeks, study length 95 weeks) was 91 mg/kg/day. For the same compound, the TD50 (mouse, strain B6C3F1, males, site: liver, lesion: hepatocellular adenoma, dosed 95 weeks, study length 95 weeks) was 222 mg/kg/day, the TD50 (mouse, strain B6C3F1, males, site: liver, lesion: hepatocellular carcinoma, dosed 95 weeks, study length 95 weeks) was 190 mg/kg/day and the TD50 (mouse, strain B6C3F1, males, site: lung, lesion: alveolar/bronchiolar adenoma + alveolar/bronchiolar carcinoma + carcinoma, dosed 95 weeks, study length 95 weeks) was 216 mg/kg/day. It also gave a TD50 (mouse, strain B6C3F1, males, site: lung, lesion: alveolar/bronchiolar adenoma + alveolar/bronchiolar carcinoma, dosed 95 weeks, study length 95 weeks) of 220 mg/kg/day, a TD50 (mouse, strain B6C3F1, males, site: lung, lesion: alveolar/bronchiolar adenoma, dosed 95 weeks, study length 95 weeks) of 348 mg/kg/day and a TD50 (mouse, strain B6C3F1, males, site: lung, lesion: alveolar/bronchiolar carcinoma + carcinoma, dosed 95 weeks, study length 95 weeks) of 830 mg/kg/day. It also gave a TD50 (mouse, strain B6C3F1, males, site: thyroid gland, lesion: follicular-cell adenoma + follicular-cell carcinoma, dosed 95 weeks, study length 95 weeks) of 988 mg/kg/day, a TD50 (mouse, strain B6C3F1, males, site: thyroid gland, lesion: follicular-cell adenoma, dosed 95 weeks, study length 95 weeks) of 1440 mg/kg/day and a TD50 (rat, strain Fischer 344, females, site: all sites + liver, lesion: mononuclear-cell leukemia + hemangiosarcoma + hepatocellular adenoma + hepatocellular carcinoma, dosed 103 weeks, study length 104 weeks) of 56.3 mg/kg/day. For the same compound, the TD50 (rat, strain Fischer 344, females, site: all sites, lesion: hemangiosarcoma, dosed 103 weeks, study length 104 weeks) was 886 mg/kg/day, the TD50 (rat, strain Fischer 344, females, site: all sites, lesion: mononuclear-cell leukemia, dosed 103 weeks, study length 104 weeks) was 228 mg/kg/day and the TD50 (rat, strain Fischer 344, females, site: any site (literature study), lesion: several types, types named in the paper, dosed 103 weeks, study length 104 weeks) was 287 mg/kg/day. The TD50 (rat, strain Fischer 344, females, site: kidney, lesion: tubule adenoma + tubule carcinoma, dosed 103 weeks, study length 104 weeks) was 958 mg/kg/day and 1310 mg/kg/day, the TD50 (rat, strain Fischer 344, females, site: kidney, lesion: tubule adenoma, dosed 103 weeks, study length 104 weeks) was 1510 mg/kg/day and the TD50 (rat, strain Fischer 344, females, site: kidney, lesion: tubule carcinoma, dosed 103 weeks, study length 104 weeks) was 7380 mg/kg/day. For the same compound, the TD50 (rat, strain Fischer 344, females, site: liver, lesion: hemangiosarcoma, dosed 103 weeks, study length 104 weeks) was 886 mg/kg/day, the TD50 (rat, strain Fischer 344, females, site: liver, lesion: hepatocellular adenoma + hepatoblastoma + hepatocellular carcinoma, dosed 103 weeks, study length 104 weeks) was 156 mg/kg/day and the TD50 (rat, strain Fischer 344, females, site: liver, lesion: hepatocellular adenoma + hepatocellular carcinoma, dosed 103 weeks, study length 104 weeks) was 156 mg/kg/day. For the same compound, the TD50 (rat, strain Fischer 344, females, site: liver, lesion: hepatocellular adenoma, dosed 103 weeks, study length 104 weeks) was 528 mg/kg/day, the TD50 (rat, strain Fischer 344, females, site: liver, lesion: hepatocellular carcinoma, dosed 103 weeks, study length 104 weeks) was 251 mg/kg/day and the TD50 (rat, strain Fischer 344, males, site: all sites, lesion: mononuclear-cell leukemia, dosed 103 weeks, study length 104 weeks) was 59.7 mg/kg/day. For the same compound, the TD50 (rat, strain Fischer 344, males, site: any site (literature study), lesion: several types, types named in the paper, dosed 103 weeks, study length 104 weeks) was 35.4 mg/kg/day, the TD50 (rat, strain Fischer 344, males, site: kidney, lesion: renal tubule adenoma, bilateral + tubule adenoma + tubule carcinoma, dosed 103 weeks, study length 104 weeks) was 292 mg/kg/day and 367 mg/kg/day and the TD50 (rat, strain Fischer 344, males, site: kidney, lesion: renal tubule adenoma, bilateral + tubule adenoma, dosed 103 weeks, study length 104 weeks) was 242 mg/kg/day and 334 mg/kg/day. For the same compound, the TD50 (rat, strain Fischer 344, males, site: liver, lesion: hepatocellular adenoma + hepatoblastoma + hepatocellular carcinoma, dosed 103 weeks, study length 104 weeks) was 81.6 mg/kg/day, the TD50 (rat, strain Fischer 344, males, site: liver, lesion: hepatocellular adenoma + hepatocellular carcinoma, dosed 103 weeks, study length 104 weeks) was 81.6 mg/kg/day and the TD50 (rat, strain Fischer 344, males, site: liver, lesion: hepatocellular adenoma, dosed 103 weeks, study length 104 weeks) was 136 mg/kg/day. It also gave a TD50 (rat, strain Fischer 344, males, site: liver, lesion: hepatocellular carcinoma, dosed 103 weeks, study length 104 weeks) of 163 mg/kg/day and a TD50 (rat, strain Fischer 344, males, site: testis, lesion: interstitial-cell adenoma, bilateral + interstitial-cell adenoma, dosed 103 weeks, study length 104 weeks) of 27.5 mg/kg/day.
